How the values were obtained:
sugarbeets = test: Pre-planting sugar application on sugarbeets, Foxhome; type: in vivo, sugarbeet; details: for Recoverable Sugar Yield / Recoverable Sugar Yield Increase Compared to Check Average / Sugarbeet Yield: MN
Protocol: (§1) The field trials were conducted simultaneously in two different planting locations for each of the crops. One location was near the community of Foxhome in Wilkin County, Minnesota (hereafter referred to as “Foxhome”) while the second location was near the community of Hickson in Cass County, North Dakota (hereafter referred to as “Hickson”). The Foxhome and Hickson locations are on opposite sides of the Red River along the border of Minnesota and North Dakota and separated by a distance exceeding 40 miles. Generally, the Foxhome location has heavier clay loam soil conditions while Hickson has sandy loam soil conditions.
(§2) At each of the Foxhome and Hickson locations, a total of thirty two (32) treatments were conducted for each crop (sugarbeets, soybeans, corn, wheat). Each treatment was replicated four times arranged in a Randomized Complete Block (RCB) Design in the same field. Each replication consisted of a plot measuring twenty five (25) feet in length and eleven (11) feet in width. In selecting the particular seed types for evaluation, popular commercial varieties to the region were utilized. For the row crops (sugarbeets, soybeans, corn) each replication included a width of six (6) rows with twenty two (22) inch row spacing and having a row length of twenty five (25) feet. The wheat was planted in accordance with standard commercial practices. To reduce/eliminate any treatment impacts between adjacent plots for the crops, only the four (4) interior rows of each plot were treated and evaluated for row crops, while for wheat, only the interior 7.33 feet of each plot were treated and evaluated. With the exception of the treatment program applied to the individual plots, which will be discussed below, conventional commercial growing practices for each planting location were otherwise followed during the field trials.
(§3) The treatment regimen at each location for each of the tested crops included two (2) untreated treatments (Treatments 31 and 32) in which no sugar was applied and constitute the control elements. […] Six (6) treatments (Treatments 13-18) included the liquid application of high fructose corn syrup (hereafter “HFCS”) at varying rates. Six treatments (Treatments 19-24) included the liquid application of dextrose (hereafter “LIQDEX”) at varying rates. Six (6) treatments (Treatments 25-30) included the application of powdered cellulose (hereafter “POWCEL”) at varying rates. For the sugar applied in a solid form, granulated or powdered, field application was conducted via conventional broadcast spreading. For the sugar applied in a liquid form, a liquid concentrate was mixed and diluted with water in a tank and a conventional sprayer was configured such that the liquid was sprayed so as to have the same sugar equivalent (measured in pounds/per acre) as the sugar in solid form. Regardless of whether the sugar was applied as a solid or liquid, the sugar was applied directly onto the soil before spring tillage, lightly worked into the ground and followed by planting of the crop seed in the treated ground. A summary of application rates for each plot treatments are contained in Table 7 below and were used consistently with each of the crops (sugarbeets, soybeans, corn, wheat).
To test the impact of pre-planting application rates and sugar source on sugarbeets, identical field trials using Crystal® brand ACH 260 sugarbeet seed were conducted at the Foxhome and Hickson locations. Planting of the sugarbeet seed and harvest of the sugarbeets were conducted on as close to the same dates as practical so as to have essentially the same length growing season.

soybeans = test: Pre-planting sugar application on soybeans, Foxhome; type: in vivo, soybean; details: for Yield / Yield Increase Compared to Check: MN
Protocol: as §1
as §2, with “trials. While the individual plots at the same location, Hickson or Foxhome, experienced essentially the same growing conditions throughout the season, there were various differences associated with localized precipitation, general growing conditions, soil classification and the like, which contributed to performance differences between the Hickson and Foxhome locations.” for “trials.”
as §3
(§4) To test the impact of pre-planting application rates and sugar source on soybeans, identical field trials using Syngenta brand soybean seed were conducted at the Foxhome and Hickson locations. Planting of the soybean seed and harvest of the soybeans were conducted on approximately the same dates so as to have essentially the same growing season. […]

wheat [1] = test: Pre-planting sugar application on wheat, Foxhome; type: in vivo; details: for Yield / Yield Increase Compared to Check Average: MN
Protocol: as §1
as §2, with “trials. While the individual plots at the same location, Hickson or Foxhome, experienced essentially the same growing conditions throughout the season, there were various differences associated with localized precipitation, general growing conditions, soil classification and the like, which contributed to performance differences between the Hickson and Foxhome locations.” for “trials.”
as §3
as §4, with “wheat,” for “soybeans,”, “Westbred Mayville wheat” for “Syngenta brand soybean”, “wheat” for “soybean”, “wheat” for “soybeans”, “on” for “on approximately”

wheat [2] = test: Pre-planting sugar application on wheat, Hickson; type: in vivo; details: ND
Protocol: as §1
as §2, with “trials. While the individual plots at the same location, Hickson or Foxhome, experienced essentially the same growing conditions throughout the season, there were various differences associated with localized precipitation, general growing conditions, soil classification and the like, which contributed to performance differences between the Hickson and Foxhome locations.” for “trials.”
as §3
as §4, with “wheat,” for “soybeans,”, “Westbred Mayville wheat” for “Syngenta brand soybean”, “wheat” for “soybean”, “wheat” for “soybeans”, “on” for “on approximately”

[3] = six rates (25-250 pounds/Acre) per sugar, thirty in all

`OC[C@H]1O[C@@](CO)(O[C@H]2O[C@H](CO)[C@@H](O)[C@H](O)[C@H]2O)[C@@H](O)[C@@H]1O` [LIQSUC, sucrose] was tested, and the “Recoverable Sugar Yield” value (sugarbeets; pre-planting 25 pounds/Acre) was 8629 Pounds/Acre, the “Recoverable Sugar Yield Increase Compared to Check Average” value (sugarbeets; pre-planting 25 pounds/Acre) was 0.61% and the “Sugarbeet Yield” value (sugarbeets; pre-planting 25 pounds/Acre) was 32.17 Tons/Acre. For the same compound, the “Recoverable Sugar Yield” value (sugarbeets; pre-planting 50 pounds/Acre) was 8627 Pounds/Acre, the “Recoverable Sugar Yield Increase Compared to Check Average” value (sugarbeets; pre-planting 50 pounds/Acre) was 0.58% and the “Sugarbeet Yield” value (sugarbeets; pre-planting 50 pounds/Acre) was 31.21 Tons/Acre. The “Recoverable Sugar Yield” value (sugarbeets; pre-planting 100 pounds/Acre) was 8592 Pounds/Acre, the “Recoverable Sugar Yield Increase Compared to Check Average” value (sugarbeets; pre-planting 100 pounds/Acre) was 0.17% and the “Sugarbeet Yield” value (sugarbeets; pre-planting 100 pounds/Acre) was 31.79 Tons/Acre. The “Recoverable Sugar Yield” value (sugarbeets; pre-planting 150 pounds/Acre) was 8646 Pounds/Acre, the “Recoverable Sugar Yield Increase Compared to Check Average” value (sugarbeets; pre-planting 150 pounds/Acre) was 0.80% and the “Sugarbeet Yield” value (sugarbeets; pre-planting 150 pounds/Acre) was 30.26 Tons/Acre. The “Recoverable Sugar Yield” value (sugarbeets; pre-planting 200 pounds/Acre) was 8473 Pounds/Acre, the “Recoverable Sugar Yield Increase Compared to Check Average” value (sugarbeets; pre-planting 200 pounds/Acre) was −1.21% and the “Sugarbeet Yield” value (sugarbeets; pre-planting 200 pounds/Acre) was 30.23 Tons/Acre. For the same compound, the “Recoverable Sugar Yield” value (sugarbeets; pre-planting 250 pounds/Acre) was 8424 Pounds/Acre, the “Sugarbeet Yield” value (sugarbeets; pre-planting 250 pounds/Acre) was 31.04 Tons/Acre and the “number of treatments showing yield improvement compared to check average” value (sugarbeets; [3]) was “four of the six”. For the same compound, the Yield (soybeans; pre-planting 25 pounds/Acre) was 67.82 Bushels/Acre, the “Yield Increase Compared to Check” value (soybeans; pre-planting 25 pounds/Acre) was −1.05% and the Yield (soybeans; pre-planting 50 pounds/Acre) was 72.08 Bushels/Acre. The “Yield Increase Compared to Check” value (soybeans; pre-planting 50 pounds/Acre) was 5.16%, the Yield (soybeans; pre-planting 100 pounds/Acre) was 71.28 Bushels/Acre and the “Yield Increase Compared to Check” value (soybeans; pre-planting 100 pounds/Acre) was 4.00%. The Yield (soybeans; pre-planting 150 pounds/Acre) was 70.57 Bushels/Acre, the “Yield Increase Compared to Check” value (soybeans; pre-planting 150 pounds/Acre) was 2.96% and the Yield (soybeans; pre-planting 200 pounds/Acre) was 68.33 Bushels/Acre. For the same compound, the “Yield Increase Compared to Check” value (soybeans; pre-planting 200 pounds/Acre) was −0.31%, the Yield (soybeans; pre-planting 250 pounds/Acre) was 72.14 Bushels/Acre and the “Yield Increase Compared to Check” value (soybeans; pre-planting 250 pounds/Acre) was 5.25%. The “number of treatments showing yield improvement compared to check treatment 31” value (soybeans; [3]) was “four of the six”, the Yield (wheat [1]; pre-planting 25 pounds/Acre) was 57.25 Bushels/Acre and the “Yield Increase Compared to Check Average” value (wheat [1]; pre-planting 25 pounds/Acre) was −11.65%. The Yield (wheat [1]; pre-planting 50 pounds/Acre) was 68.06 Bushels/Acre, the “Yield Increase Compared to Check Average” value (wheat [1]; pre-planting 50 pounds/Acre) was 5.03% and the Yield (wheat [1]; pre-planting 100 pounds/Acre) was 67.59 Bushels/Acre. The “Yield Increase Compared to Check Average” value (wheat [1]; pre-planting 100 pounds/Acre) was 4.31%, the Yield (wheat [1]; pre-planting 150 pounds/Acre) was 65.84 Bushels/Acre and the “Yield Increase Compared to Check Average” value (wheat [1]; pre-planting 150 pounds/Acre) was 1.60%. For the same compound, the Yield (wheat [1]; pre-planting 200 pounds/Acre) was 62.49 Bushels/Acre, the “Yield Increase Compared to Check Average” value (wheat [1]; pre-planting 200 pounds/Acre) was −3.56% and the Yield (wheat [1]; pre-planting 250 pounds/Acre) was 63.20 Bushels/Acre. For the same compound, the “Yield Increase Compared to Check Average” value (wheat [1]; pre-planting 250 pounds/Acre) was −2.47%, the “number of treatments showing yield improvement compared to check average” value (wheat [1]; [3]) was “three of the six” and the Yield (wheat [2]; pre-planting 25 pounds/Acre) was 47.09 Bushels/Acre. The “Yield Increase Compared to Check” value (wheat [2]; pre-planting 25 pounds/Acre) was −4.17%, the Yield (wheat [2]; pre-planting 50 pounds/Acre) was 53.46 Bushels/Acre and the “Yield Increase Compared to Check” value (wheat [2]; pre-planting 50 pounds/Acre) was 8.79%. The Yield (wheat [2]; pre-planting 100 pounds/Acre) was 50.09 Bushels/Acre, the “Yield Increase Compared to Check” value (wheat [2]; pre-planting 100 pounds/Acre) was 1.93% and the Yield (wheat [2]; pre-planting 150 pounds/Acre) was 46.03 Bushels/Acre. The “Yield Increase Compared to Check” value (wheat [2]; pre-planting 150 pounds/Acre) was −6.33%, the Yield (wheat [2]; pre-planting 200 pounds/Acre) was 48.31 Bushels/Acre and the “Yield Increase Compared to Check” value (wheat [2]; pre-planting 200 pounds/Acre) was −1.69%. The Yield (wheat [2]; pre-planting 250 pounds/Acre) was 50.24 Bushels/Acre and the “Yield Increase Compared to Check” value (wheat [2]; pre-planting 250 pounds/Acre) was 2.24%.
